# Laboratory results from patent US6673795B2, “Pyrimidine, pyrazine and triazane derivatives” (Hoffmann-La Roche Inc., priority 2001, dated 2004).
# Biological target: T1, rat mGluR1a receptor (Rattus norvegicus, UniProt P23385)
# T1 construct: expressed in transfected cells; host or cells: HEK 293 cells, transient transfection; membrane preparation
# Test: Binding assay for the characterization of mGluR 1 antagonistic properties (tritiated radioligand displacement)
# Settings: membranes of HEK 293 cells transiently transfected with rat mGluR1a; tritiated 1-ethyl-2-methyl-6-oxo-4-(1,1,2-tritritio-1,2,4,5-tetrahydro-benzo[d]azepin-3-yl)-1,6-dihydro-pyrimidine-5-carbonitrile at 3 nM; 1 hour at room temperature
# Protocol: Binding Assay for the Characterization of mGluR 1 Antagonistic Properties
# Binding assay with tritiated 1-ethyl-2-methyl-6-oxo-4-(1,1,2-tritritio-1,2,4,5-tetrahydro-benzo[d]azepin-3-yl)-1,6-dihydro-pyrimidine-5-carbonitrile: HEK 293 cells were transiently transfected with the rat mGluR^1 a receptor. The cells were collected and washed 3 times with PBS. The cell pellets were frozen at −80° C. Membranes were prepared from HEK 293 cells transfected with the rat mGluR^1 a receptor and used in the binding experiments at 10 μg proteins per assay after resuspension in a HEPES NaOH 20 mM, pH=7.4 binding buffer. 1-Ethyl-2-methyl-6-oxo-4-(1,1,2-tritritio-1,2,4,5-tetrahydro-benzo [d]azepin-3-yl)-1,6-dihydro-pyrimidine-5-carbonitrile (S.A 33.4 Ci/mmol) was used at 3 nM final concentration. The incubation with variable concentrations of potential inhibitors was performed for 1 hour at room temperature, the incubate was then filtered onto GF/B glass fiber filter preincubated 1 hour in PEI 0,1% and washed 3 times with 1 ml of cold binding buffer. The radioactivity retained on the unifilter 96 was counted using a Topcount β counter. After correction for non specific binding the data were normalized and the IC50 value calculated using a 4 parameters logistic equation which was fitted to the inhibition curve.
# T1 sequence (P23385 19-1199): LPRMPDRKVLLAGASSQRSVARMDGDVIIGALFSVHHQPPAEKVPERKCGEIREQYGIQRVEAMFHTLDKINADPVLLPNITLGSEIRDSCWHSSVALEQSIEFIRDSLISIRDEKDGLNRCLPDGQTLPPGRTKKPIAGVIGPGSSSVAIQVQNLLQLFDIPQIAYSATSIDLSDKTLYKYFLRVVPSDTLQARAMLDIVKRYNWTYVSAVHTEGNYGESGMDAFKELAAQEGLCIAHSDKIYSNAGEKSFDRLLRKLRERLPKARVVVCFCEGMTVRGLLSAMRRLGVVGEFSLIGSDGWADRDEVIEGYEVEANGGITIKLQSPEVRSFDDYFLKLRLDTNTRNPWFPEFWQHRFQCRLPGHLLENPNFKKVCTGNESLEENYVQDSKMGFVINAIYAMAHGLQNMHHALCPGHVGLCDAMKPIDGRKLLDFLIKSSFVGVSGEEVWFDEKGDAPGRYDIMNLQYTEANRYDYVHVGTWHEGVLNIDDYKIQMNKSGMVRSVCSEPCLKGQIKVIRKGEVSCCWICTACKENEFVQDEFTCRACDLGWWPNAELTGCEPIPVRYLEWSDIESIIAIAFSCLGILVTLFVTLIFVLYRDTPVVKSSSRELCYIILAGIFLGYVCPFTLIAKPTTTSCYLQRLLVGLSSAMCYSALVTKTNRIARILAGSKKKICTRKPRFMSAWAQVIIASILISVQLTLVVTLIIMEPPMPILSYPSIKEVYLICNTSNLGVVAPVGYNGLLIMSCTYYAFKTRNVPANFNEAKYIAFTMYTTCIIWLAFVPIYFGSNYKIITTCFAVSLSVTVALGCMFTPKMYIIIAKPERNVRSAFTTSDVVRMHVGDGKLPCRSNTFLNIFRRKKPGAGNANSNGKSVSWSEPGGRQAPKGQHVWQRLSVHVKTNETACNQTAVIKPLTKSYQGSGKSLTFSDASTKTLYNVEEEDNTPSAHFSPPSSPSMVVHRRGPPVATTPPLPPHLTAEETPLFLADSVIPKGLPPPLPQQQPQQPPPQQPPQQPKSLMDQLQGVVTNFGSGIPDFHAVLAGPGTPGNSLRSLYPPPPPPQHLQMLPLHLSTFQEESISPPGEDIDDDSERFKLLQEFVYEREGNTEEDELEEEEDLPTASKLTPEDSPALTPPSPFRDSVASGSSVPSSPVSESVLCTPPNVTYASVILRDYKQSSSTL
row,Compound,IC50 [µM]
1,"N#Cc1c(NCCO)nc(NCCO)nc1N1CCN(c2ccccc2F)CC1 [Example 20, 4-[4-(2-Fluoro-phenyl)-piperazin-1-yl]-2,6-bis-(2-hydroxy-ethylamino)-pyrimidine-5-carbonitrile]",0.29
2,"CSc1ccccc1N1CCN(c2nc(NCCO)nc(NCCO)c2C#N)CC1 [Example 25, 2,4-Bis-(2-hydroxy-ethylamino)-6-[4-(2-methylsulfanyl-phenyl)-piperazin-1-yl]-pyrimidine-5-carbonitrile]",0.35
3,"N#Cc1c(NCCO)nc(NCCO)nc1N1CCN(c2ccccc2[N+](=O)[O-])CC1 [Example 29, 2,4-Bis-(2-hydroxy-ethylamino)-6-[4-(2-nitro-phenyl)-piperazin-1-yl]-pyrimidine-5-carbonitrile]",0.75
4,"N#Cc1c(NCCO)nc(NCCO)nc1N1CCC(c2ccc(F)cc2)CC1 [Example 32, 4-[4-(4-Fluoro-phenyl)-piperidin-1-yl]-2,6-bis-(2-hydroxy-ethylamino)-pyrimidine-5-carbonitrile]",0.7
5,"N#Cc1c(NCCO)nc(NCCO)nc1N1CC=C(c2ccc(F)cc2)CC1 [Example 35, 4-[4-(4-Fluoro-phenyl)-3,6-dihydro-2H-pyridin-1-yl]-2,6-bis-(2-hydroxy-ethylamino)-pyrimidine-5-carbonitrile]",0.39
6,"N#Cc1c(NCCO)nc(NCCO)nc1N1CCC(C#N)(c2ccccc2)CC1 [Example 37, 4-(4-cyano-4-phenyl-piperidin-1-yl)-2,6-bis-(2-hydroxy-ethylamino)-pyrimidine-5-carbonitrile]",1.8
7,"N#Cc1c(NC2CC2)nc(NC2CC2)nc1N1CCN(c2ccccc2)CC1 [Example 38, 2,4-Bis-cyclopropylamino-6-(4-phenyl-piperazin-1-yl)-pyrimidine-5-carbonitrile]",0.064
8,"N#Cc1c(NCc2ccccn2)nc(NCc2ccccn2)nc1N1CCN(c2ccccc2)CC1 [Example 40, 4-(4-Phenyl-piperazin-1-yl)-2,6-bis-[(pyridin-2-ylmethyl)-amino]-pyrimidine-5-carbonitrile]",1.5
9,"N#Cc1c(NCCO)nc(NC2CC2)nc1N1CCN(c2ccccc2)CC1 [Example 47, 2-cyclopropylamino-4-(2-hydroxy-ethylamino)-6-(4-phenyl-piperazin-1-yl)-pyrimidine-5-carbonitrile]",0.033
10,"N#Cc1c(NCCO)nc(NCc2cccnc2)nc1N1CCN(c2ccccc2)CC1 [Example 49, 4-(2-Hydroxy-ethylamino)-6-(4-phenyl-piperazin-1-yl)-2-[(pyridin-3-ylmethyl)-amino]-pyrimidine-5-carbonitrile]",0.15
11,"N#Cc1c(NCCO)nc(NCc2cccnc2)nc1N1CCC(c2ccccc2)CC1 [Example 54, 4-(2-Hydroxy-ethylamino)-6-(4-phenyl-piperidin-1-yl)-2-[(pyridin-3-ylmethyl)-amino]-pyrimidine-5-carbonitrile]",0.03
12,"N#Cc1c(OCC(F)(F)F)nc(NCCO)nc1N1CCC(c2ccccc2)CC1 [Example 60, 2-(2-Hydroxy-ethylamino)-4-(4-phenyl-piperidin-1-yl)-6-(2,2,2-trifluoro-ethoxy)-pyrimidine-5-carbonitrile]",0.036
13,"N#Cc1c(Cl)nc(NCC2CC2)nc1N1CCN(c2ccccc2)CC1 [Example 63, 4-chloro-2-(cyclopropylmethyl-amino)-6-(4-phenyl-piperazin-1-yl)-pyrimidine-5-carbonitrile]",0.025
14,"N#Cc1c(Cl)nc(NCCO)nc1N1CCC(c2ccc(F)cc2)CC1 [Example 68, 4-chloro-6-[4-(4-fluoro-phenyl)-piperidin-1-yl]-2-(2-hydroxy-ethylamino)-pyrimidine-5-carbonitrile]",0.14
15,"CSc1nc(N)nc(N2CCN(c3ccc(F)cc3)CC2)c1C#N [Example 70, 2-amino-4-[4-(4-fluoro-phenyl)-piperazin-1-yl]-6-methylsulfanyl-pyrimidine-5-carbonitrile]",0.21
16,"CSc1nc(N)nc(N2CCC(c3ccc(F)cc3)CC2)c1C#N [Example 73, 2-Amino-4-[4-(4-fluoro-phenyl)-piperidin-1-yl]-6-methylsulfanyl-pyrimidine-5-carbonitrile]",0.159
17,"N#Cc1nnc(NCCO)nc1N1CC=C(c2ccccc2)CC1 [Example 84, 3-(2-Hydroxy-ethylamino)-5-(4-phenyl-3,6-dihydro-2H-pyridin-1-yl)-[1,2,4]triazine-6-carbonitrile]",0.66

# Continued, values first:
row,IC50 [µM],Compound
1,0.042,"Cc1nc(N2CCN(c3ccc(F)cc3)CC2)c([N+](=O)[O-])c(=O)n1CCO [Example 8-1, 6-[4-(4-fluoro-phenyl)-piperazin-1-yl]-3-(2-hydroxy-ethyl)-2-methyl-5-nitro-3H-pyrimidin-4-one]"
2,0.058,"Cc1nc(OCCO)c([N+](=O)[O-])c(N2CCN(c3ccc(F)cc3)CC2)n1 [Example 8-2, 2-{6-[4-(4-fluoro-phenyl)-piperazin-1-yl]-2-methyl-5-nitro-pyrimidin-4-yloxy}-ethanol]"
3,0.049,"CCn1c(C)nc(N2CCN(c3ccc(F)cc3)CC2)c([N+](=O)[O-])c1=O [Example 10-1, 3-ethyl-6-[4-(4-fluoro-phenyl)-piperazin-1-yl]-2-methyl-5-nitro-3H-pyrimidin-4-one]"
4,0.023,"CCc1nc(N2CCN(c3ccccc3)CC2)c(C#N)nc1C [Example 75-2, 6′-ethyl-5′-methyl-4-phenyl-3,4,5,6-tetrahydro-2H-[1,2′]bipyrazinyl-3′-carbonitrile]"
5,0.025,"CCc1c(C)nc(N2CCN(c3ccc(F)cc3)CC2)c(C#N)[n+]1[O-] [Example 79-1, 5′-ethyl-4-(4-fluoro-phenyl)-6′-methyl-4′-oxy-3,4,5,6-tetrahydro-2H-[1,2′]bipyrazinyl-3′-carbonitrile]"
6,0.21,"CCc1nc(N2CCN(c3ccc(F)cc3)CC2)c(C#N)[n+]([O-])c1C [Example 79-2, 6′-ethyl-4-(4-fluoro-phenyl)-5′-methyl-4′-oxy-3,4,5,6-tetrahydro-2H-[1,2′]bipyrazinyl-3′-carbonitrile]"

# Tested on: not given
# Test: not given
# Settings: not given
row,Compound,melting point
1,"Cc1nc(N2CCC(O)(c3ccccc3)CC2)c([N+](=O)[O-])c(=O)[nH]1 [Example 3, 6-(4-Hydroxy-4-phenyl-piperidin-1-yl)-2-methyl-5-nitro-3H-pyrimidin-4-one]",> 250 °C (dec.)
2,"Cc1nc(N2CCN(c3ccccc3)CC2)c([N+](=O)[O-])c(=O)[nH]1 [Example 4, 2-Methyl-5-nitro-6-(4-phenyl-piperazin-1-yl)-3H-pyrimidin-4-one]",> 250 °C (dec.)
3,"Cc1nc(N2CC=C(c3ccccc3)CC2)c([N+](=O)[O-])c(=O)[nH]1 [Example 6, 2-Methyl-5-nitro-6-(4-phenyl-3,6-dihydro-2H-pyridin-1-yl)-3H-pyrimidin-4-one]",212 to 216 °C (dec.)
4,"Cc1nc(N2CCC(c3ccc(F)cc3)CC2)c([N+](=O)[O-])c(=O)[nH]1 [Example 7, 6-[4-(4-Fluoro-phenyl)-piperidin-1-yl]-2-methyl-5-nitro-3H-pyrimidin-4-one]",218 to 221 °C (dec.)
5,"Cc1nc(OC(C)C)c([N+](=O)[O-])c(N2CCN(c3ccc(F)cc3)CC2)n1 [Example 11, 4-[4-(4-Fluoro-phenyl)-piperazin-1-yl]-6-isopropoxy-2-methyl-5-nitro-pyrimidine]",98 to 100 °C
6,"Cc1nc(N2CCC(c3ccc(F)cc3)CC2)c([N+](=O)[O-])c(=O)n1CC#N [Example 16, {4-[4-(4-Fluoro-phenyl)-piperidin-1-yl]-2-methyl-5-nitro-6-oxo-6H-pyrimidin-1-yl}-acetonitrile]",213 to 215 °C (dec.)
7,"Cc1nc(N2CCN(c3ccc(F)cc3)CC2)c(C#N)nc1-c1ccccc1 [Example 80, 4-(4-Fluoro-phenyl)-6′-methyl-5′-phenyl-3,4,5,6-tetrahydro-2H-[1,2′]bipyrazinyl-3′-carbonitrile]",117 to 120 °C
8,"N#Cc1ncc(NCCO)nc1N1CCC(c2ccc(F)cc2)CC1 [Example 82, 3-[4-(4-Fluoro-phenyl)-piperidin-1-yl]-5-(2-hydroxy-ethylamino)-pyrazine-2-carbonitrile]",155 to 158 °C

# The next lines start with the values.
row,melting point,Compound
1,114 to 117 °C,"Cc1nc(OCC(F)(F)F)c([N+](=O)[O-])c(N2CCC(c3ccccc3)CC2)n1 [Example 9-2, 2-methyl-5-nitro-4-(4-phenyl-piperidin-1-yl)-6-(2,2,2-trifluoro-ethoxy)-pyrimidine]"
2,92 to 95 °C,"Cc1nc(OCC(F)(F)F)c([N+](=O)[O-])c(N2CCN(c3ccc(F)cc3)CC2)n1 [Example 12-2, 4-[4-(4-fluoro-phenyl)-piperazin-1-yl]-2-methyl-5-nitro-6-(2,2,2-trifluoro-ethoxy)-pyrimidine]"
3,61 to 64 °C,"Cc1nc(OCC(F)(F)F)c([N+](=O)[O-])c(N2CCC(c3ccc(F)cc3)CC2)n1 [Example 13-2, 4-[4-(4-fluoro-phenyl)-piperidin-1-yl]-2-methyl-5-nitro-6-(2,2,2-trifluoro-ethoxy)-pyrimidine]"
4,45 to 48 °C,"COCCOc1nc(C)nc(N2CCC(c3ccc(F)cc3)CC2)c1[N+](=O)[O-] [Example 14-2, 4-[4-(4-fluoro-phenyl)-piperidin-1-yl]-6-(2-methoxy-ethoxy)-2-methyl-5-nitro-pyrimidine]"
